Laboratory results from ChEMBL document CHEMBL5316371, “Paraconulones A-G: Eremophilane Sesquiterpenoids from the Marine-Derived Fungus Paraconiothyrium sporulosum DL-16” (J Nat Prod, 2023).

Key:
[1] = test system: BV-2; test: Antiinflammatory activity against mouse BV-2 cells assessed as reduction in LPS-induced NO production incubated for 24 hrs by Griess reagent based assay; assay type: functional, cell-based; conditions: BV-2, 24 h
[2] = Cytotoxicity against mouse BV-2 cells assessed as reduction in cell growth; assay type: toxicity, cell-based

SMILES	IC50 [1] [µM]	CC50 [2] [µM]
CO[C@]12C=C3C=C(C4=CC5=C[C@]6(OC)OC[C@@H](C)[C@]6(O)C[C@]5(C)[C@@H](C)C4=O)C(=O)[C@@H](C)[C@@]3(C)C[C@@]1(O)[C@H](C)CO2	6.9	> 50
CC(=O)OC[C@@H](C)[C@]1(O)C[C@@]2(C)C(=CC1=O)[C@@H]1[C@H](C(=O)[C@@H]2C)[C@H]2C(=O)[C@H](C)[C@@]3(C)C[C@@](O)([C@H](C)COC(C)=O)C(=O)C=C3[C@H]21	2.8	> 50
CC1=C(C)[C@]2(C=CC1=O)C[C@@]1(O)[C@H](C)CO[C@@]1(O)C2	8.1	> 50
COc1cc(/C=C/C(=O)CC(=O)/C=C/c2ccc(O)c(OC)c2)ccc1O [CURCUMIN]	8.6	> 50
C[C@H](CO)C1=C[C@@]2(C)C(=CC1=O)C=CC(=O)[C@H]2C	40	> 50

Now from value to compound, other results behind:

IC50 [1] [µM]	SMILES	CC50 [2] [µM]
7.7	CC(=O)OC[C@@H](C)[C@]1(O)C[C@@]2(C)C(=CC1=O)C=CC(=O)[C@H]2C	> 50
80	CO[C@]12C=C3C=CC(=O)[C@@H](C)[C@@]3(C)C[C@@]1(O)[C@H](C)CO2 [MICROSPHAEROPSISIN]	> 50
98	C=C(C)[C@]1(O)C[C@@]2(C)C(=C[C@H]1O)C=CC(=O)[C@@H]2C	> 50
8.1	C[C@H](CO)[C@@H]1C[C@@]2(C)C(=CC1=O)C=CC(=O)[C@H]2C	> 50
4.6	CO[C@]12C=C3C=CC(=O)[C@H](C)[C@@]3(C)C[C@@]1(O)[C@H](C)CO2	> 50
